Test results: US10982252B2, “Bacterial systems for analyzing ubiquitylated polypeptides” (Technology Innovation Momentum Fund (Israel) Limited …, priority 2016, dated 2021)
Blank lines part the entries; values can stand above or below the molecule they belong to.

Assays:
[1] = molecular target: T1, E1 (Triticum aestivum, UniProt P20973); assay: Selection experiments in solution growth media (96-well, TRIM with or without Pyr-41), Hrs dsUIM ubiquitination; assay type: cell-based; conditions: 100 μM Pyr-41, with or without TRIM, n=9; FIG. 3D
T1 construct: expressed in transfected cells; host or cells: E. coli
T1 sequence (P20973 1-1051): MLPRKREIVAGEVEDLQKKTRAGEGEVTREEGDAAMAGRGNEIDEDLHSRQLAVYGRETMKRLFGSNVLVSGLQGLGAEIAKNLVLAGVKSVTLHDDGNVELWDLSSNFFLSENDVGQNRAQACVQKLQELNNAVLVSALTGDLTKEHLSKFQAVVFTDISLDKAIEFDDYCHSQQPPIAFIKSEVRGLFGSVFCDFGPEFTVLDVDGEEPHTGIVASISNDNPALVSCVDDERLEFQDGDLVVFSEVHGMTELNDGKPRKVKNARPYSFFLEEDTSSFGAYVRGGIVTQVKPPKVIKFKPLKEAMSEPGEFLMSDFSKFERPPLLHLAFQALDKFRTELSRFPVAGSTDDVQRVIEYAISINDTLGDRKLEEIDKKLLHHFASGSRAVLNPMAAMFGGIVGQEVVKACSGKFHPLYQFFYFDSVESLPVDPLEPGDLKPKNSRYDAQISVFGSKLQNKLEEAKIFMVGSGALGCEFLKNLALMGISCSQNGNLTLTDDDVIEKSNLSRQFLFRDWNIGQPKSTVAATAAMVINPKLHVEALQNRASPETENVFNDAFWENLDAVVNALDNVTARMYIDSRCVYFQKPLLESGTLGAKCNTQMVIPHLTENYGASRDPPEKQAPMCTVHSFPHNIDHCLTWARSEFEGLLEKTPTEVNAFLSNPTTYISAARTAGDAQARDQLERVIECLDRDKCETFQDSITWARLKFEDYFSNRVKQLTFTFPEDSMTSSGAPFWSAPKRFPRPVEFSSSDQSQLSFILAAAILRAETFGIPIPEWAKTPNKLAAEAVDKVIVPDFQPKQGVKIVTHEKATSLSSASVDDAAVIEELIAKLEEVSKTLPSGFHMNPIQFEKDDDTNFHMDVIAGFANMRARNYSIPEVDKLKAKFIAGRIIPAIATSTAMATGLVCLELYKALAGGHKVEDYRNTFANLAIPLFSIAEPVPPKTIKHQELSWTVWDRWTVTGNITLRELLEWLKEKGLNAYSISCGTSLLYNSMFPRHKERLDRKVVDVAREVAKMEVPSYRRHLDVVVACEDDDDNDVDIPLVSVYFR
Protocol: Selection experiments in solution growth media: Overnight cultures in LB medium (supplemented with 30 μg/ml kanamycin and 25 μg/ml streptomycin) were harvested and re-suspended in Davis minimal medium. Diluted cells (OD600, 0.2) were grown at 30° C. in 96-well plates containing 0.2 ml Davis medium supplemented with 0, 1, 5, 7, 10 and 12 μg/ml TRIM and with or without 100 μM Pyr-41. Growth rates were monitored by measuring the optical density (OD595) using a microplate spectrophotometer. Doubling time was calculated for early logarithmic growth (OD595 between 0.02 and 0.2). All experiments were performed at least 9 times (n=9).
The selection system stabilizes the dynamic and weak UBD:Ub non-covalent interactions by forming a covalent bond between Ub and Ub-receptor (i.e. ubiquitination) in the bacteria. The present inventors assessed the ability of the system to sense low affinity UBD by tethering the double-sided UIM (dsUIM) of Hrs as substrate^27,28 (FIG. 3A). The structures of Hrs:STAM (also known as ESCRT-0 complex) and particularly its dsUIM:Ub complex, were determined and facilitated detailed molecular assessment^29,30. The E3-independent self-ubiquitination of most Ub-receptors and the promiscuous function of Ubc4/5 subfamily members aided in the analysis. […] Similarly, I44-patch mutant abolished bacterial growth.

[2] = molecular target: T2, Siah2 (Homo sapiens, UniProt O43255); assay: Ubiquitination-dependent E. coli growth assay, bacteria addicted to Siah2 self-ubiquitination; assay type: cell-based; conditions: only under the addictive conditions (selective media, TRIM); FIG. 2B right
T2 construct: expressed in transfected cells; host or cells: E. coli W3110
T2 sequence (O43255 1-324): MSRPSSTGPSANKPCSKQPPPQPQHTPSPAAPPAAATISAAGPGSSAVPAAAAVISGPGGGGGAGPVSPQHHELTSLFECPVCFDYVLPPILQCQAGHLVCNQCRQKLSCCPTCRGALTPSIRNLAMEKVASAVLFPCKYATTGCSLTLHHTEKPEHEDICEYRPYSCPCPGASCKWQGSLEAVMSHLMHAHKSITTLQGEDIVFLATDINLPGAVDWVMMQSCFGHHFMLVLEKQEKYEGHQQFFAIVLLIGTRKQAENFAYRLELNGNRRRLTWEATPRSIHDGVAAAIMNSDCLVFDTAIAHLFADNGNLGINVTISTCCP
Protocol: Ubiquitination-dependent E. coli growth assay: E. coliW3110 (from Ezra Yagil laboratory at TAU) were co-transformed with the pND-Ub and the pCD-Sub plasmids and plated on LB agar supplemented with 34 μg/ml kanamycin and 25 μg/ml streptomycin. 5 ml of liquid LB medium supplemented with the same antibiotic concentrations were inoculated with a single colony and left to grow overnight at 37° C. The culture was harvested and washed twice with 5 ml of minimal Davis medium. The optical density (OD600.) was measured and adjusted to 0.2. Two and a half microliters of the diluted cultures from each sample were spotted on agar Davis plates containing 0, 0.5, 5, 10, 20 or 50 μg/ml of TRIM. The plates were incubated for 2-3 days at 30° C. and photographed with a UV camera in identical conditions. Each spotting assay was repeated at least 6 times.
Most E3-ligases undergo self-ubiquitination^20. The developed selection system thus provides a straightforward tool for their identification and characterization as self-ubiquitination is predicted to confer antibiotic resistance. Yeast Rsp5 and human Siah2, representatives of the HECT and the RING ligases, respectively, were fused to cDHFR. Growth phenotypes were observed under non-permissive conditions, only when all the required ubiquitination components were co-expressed (FIGS. 2A-B). […]

[3] = test system: Ub; assay: Surface plasmon resonance, immobilized Sc_ENTH and free mono-Ub; assay type: binding; conditions: mutant complexes; Ub concentrations too low for accurate Kd, high standard errors
Protocol: Surface plasmon resonance: Purified His6-MBP-ENTH or mutants were immobilized on an Ni^+2 chip at a density of ˜800U. Untagged Ub (analyte) was injected at a flow rate of […] in 150 mM NaCl, 10 mM HEPES pH 7.0 and 0.010% poly-sorbate 20 at 24° C.; 500 mM imidazole was used for surface regeneration. To avoid immobilization of aggregated analyte the purified Ub was chromatographed by gel filtration and briefly sonicated immediately before SPR experiments. Data were processed with BioEvaluation and fitting carried out as a single-site-binding model with OriginLab. Standard errors derived from at least three samples.
Finally, to biophysically corroborate the data and to quantify the affinity of the ENTH:Ub complex, Surface Plasmon Resonance (SPR) measurements were performed with immobilized Sc_ENTH and free mono-Ub (FIG. 5I). […] Together, the correlation between the SPR measurements, the genetic and biochemical data provides a rough estimation for the sensitivity of the selection system in monitoring Ub binding.

[4] = molecular target: Ub (Homo sapiens, UniProt P0CG47); conditions: reference 26; read-out: affinity of VHS:Ub complex; cited from earlier work

Molecule: CCOC(=O)c1ccc(N2NC(=O)/C(=C/c3ccc([N+](=O)[O-])o3)C2=O)cc1 [PYR41]
effect on bacterial growth (relative growth rates at log phase) [1]: attenuates bacterial growth only in the non-permissive conditions

growth phenotype in the presence of menadione [2]: growth arrest phenotype
Molecule: CC1=CC(=O)c2ccccc2C1=O [menadione]

Molecule: Ub R42E, R72E: R42E, R72E double mutant of ubiquitin
estimated affinity, fold lower than that of the wild-type [3]: 2.6 fold

B1: Vps27: VHS domain of Vps27 in VHS:Ub complex (protein)
chain: IHSVDLSDEEKDSIYMFASLVEKMKSRPLNEILEDSKLQNLAQRVFASKARLNYALNDKAQKYNTLIEMNGKISEIMNIYDRLLEQQLQSINLSQQMEKKITGYTTVDISQWHRKEHFEAFQSVAQ
modifications: left off: small tags and cut ends
notes: VHS domain of Vps27 in VHS:Ub complex
Kd [4]: 1500 µM
